Source: patent US6506772B1, “Substituted [1,2,4]triazolo[1,5a]pyridine derivatives with activity as adenosine receptor ligands” (Hoffmann-La Roche Inc., priority 2000, dated 2003)
Where two headings read alike, the source gives them in different places.

Legend:
[1] = target: T1, human adenosine A2A receptor (Homo sapiens, UniProt P29274); assay: Human adenosine A2A receptor [3H]-SCH-58261 binding assay; conditions: for Ki: affinity to human adenosine A2A receptor, read-out: Ki HA2A; for selectivity (A1/A2a): calculated ratio of the affinity to the HA1 receptor to the HA2a receptor
T1 construct: expressed in transfected cells; host or cells: CHO cells, Semliki Forest virus expression system; membrane preparation
Description: Human Adenosine A2A Receptor
The human adenosine A2A receptor was recombinantly expressed in chinese hamster ovary (CHO) cells using the semliki forest virus expression system. Cells were harvested, washed twice by centrifugation, homogenized and again washed by centrifugation. The final washed membrane pellet was suspended in a Tris (50 mM) buffer containing 120 mM NaCl, 5 mM KCl, 2 mM CaCl2 and 10 MM MgCl2 (pH 7.4) (buffer A). […] Compounds were tested at 10 concentrations from 10 μM-0.3 nM. All assays were conducted in duplicate and repeated at least two times. Assay plates were incubated for 1 hour at room temperature before centrifugation and then bound ligand determined using a Packard Topcount scintillation counter. IC50 values were calculated using a non-linear curve fitting program and Ki values calculated using the Cheng-Prussoff equation.

HA1 adenosine receptor = target: T2, HA1 adenosine receptor (Homo sapiens, UniProt P30542); assay: Human adenosine A1 receptor affinity (Ki hA1); format: binding
T2 sequence (P30542 1-326): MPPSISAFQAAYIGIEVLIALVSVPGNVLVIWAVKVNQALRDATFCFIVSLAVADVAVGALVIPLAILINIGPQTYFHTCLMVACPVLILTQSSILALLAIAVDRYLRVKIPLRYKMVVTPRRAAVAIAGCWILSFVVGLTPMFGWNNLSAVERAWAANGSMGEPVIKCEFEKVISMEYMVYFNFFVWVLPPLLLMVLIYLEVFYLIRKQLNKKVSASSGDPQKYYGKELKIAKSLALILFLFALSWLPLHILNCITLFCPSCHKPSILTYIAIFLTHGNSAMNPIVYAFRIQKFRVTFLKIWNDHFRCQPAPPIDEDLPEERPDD

[2] = affinity to human adenosine A1 receptor

T1 sequence (P29274 whole entry): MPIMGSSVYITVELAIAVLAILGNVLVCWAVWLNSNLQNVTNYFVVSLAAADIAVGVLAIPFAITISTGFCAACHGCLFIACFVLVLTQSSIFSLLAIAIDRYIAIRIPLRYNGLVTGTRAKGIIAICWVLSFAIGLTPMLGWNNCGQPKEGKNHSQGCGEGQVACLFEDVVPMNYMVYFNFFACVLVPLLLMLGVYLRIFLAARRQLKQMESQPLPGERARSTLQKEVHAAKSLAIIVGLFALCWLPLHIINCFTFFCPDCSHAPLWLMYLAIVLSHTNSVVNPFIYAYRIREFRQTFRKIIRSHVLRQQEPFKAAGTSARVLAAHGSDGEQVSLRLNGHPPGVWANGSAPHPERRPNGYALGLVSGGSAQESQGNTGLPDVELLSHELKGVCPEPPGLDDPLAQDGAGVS

Row | Ki [1] [nM] | selectivity (A1/A2a) [1] | Ki (HA1 adenosine receptor; [2]) [nM] | Ki (HA1 adenosine receptor) [nM] | SMILES
1 | 8.9 | 27.8 | 247 | – | CCN(C(=O)c1cc(N)n2nc(-c3ccc(C)s3)nc2c1)C1CCCCC1 [Example 24, 5-Amino-2-(5-methyl-thiophen-2-yl)-[1,2,4]triazolo[1,5-a]pyridine-7-carboxylic acid cyclohexyl-ethyl-amide]
2 | 50.4 | 61.5 | 3100 | – | Nc1cc(C(=O)N2CCCC2)cc2nc(-c3nccs3)nn12 [Example 25, (5-Amino-2-thiazol-2-yl-[1,2,4]triazolo[1,5-a]pyridin-7-yl)-pyrrolidin-1-yl-methanone]
3 | 2.3 | 13.0 | 30.1 | – | CC(C)N(Cc1ccccc1)C(=O)c1cc(N)n2nc(-c3ccc(Br)o3)nc2c1 [Example 26, 5-Amino-2-(5-bromo-furan-2-yl)-[1,2,4]triazolo[1,5-a]pyridine-7-carboxylic acid benzyl-isopropyl-amide]
4 | 15.9 | 15.3 | 244 | – | CCN(Cc1ccccc1)C(=O)c1cc(N)n2nc(-c3ccccn3)nc2c1 [Example 29, 5-Amino-2-pyridin-2-yl-[1,2,4]triazolo[1,5-a]pyridine-7-carboxylic acid benzyl-ethyl-amide]
5 | 212 | 10.1 | 2140 | – | Nc1cc(C(=O)N2CCc3ccccc3C2)cc2nc(-c3ccccn3)nn12 [Example 30, (5-Amino-2-pyridin-2-yl-[1,2,4]triazolo[1,5-a]pyridin-7-yl)-(3,4-dihydro-1H-isoquinolin-2-yl)-methanone]
6 | 49.6 | 22.7 | 1130 | – | CCN(C(=O)c1cc(N)n2nc(-c3ccccn3)nc2c1)C1CCCCC1 [Example 31, 5-Amino-2-pyridin-2-yl-[1,2,4]triazolo[1,5-a]pyridine-7-carboxylic acid cyclohexyl-ethyl-amide]
7 | 28.6 | 10.1 | 288 | – | CN(Cc1ccccc1)C(=O)c1cc(N)n2nc(-c3ccccn3)nc2c1 [Example 32, 5-Amino-2-pyridin-2-yl-[1,2,4]triazolo[1,5-a]pyridine-7-carboxylic acid benzyl-methyl-amide]
8 | 87 | 13.5 | 1170 | – | CN(C(=O)c1cc(N)n2nc(-c3ccccn3)nc2c1)C1CCCCC1 [Example 33, 5-Amino-2-pyridin-2-yl-[1,2,4]triazolo[1,5-a]pyridine-7-carboxylic acid cyclohexyl-methyl-amide]
9 | 154 | 38.8 | 5980 | – | Nc1cc(C(=O)N2CCCCC2)cc2nc(-c3ccccn3)nn12 [Example 34, (5-Amino-2-pyridin-2-yl-[1,2,4]triazolo[1,5-a]pyridin-7-yl)-piperidin-1-yl-methanone]
10 | 106 | 27.5 | 2920 | – | CCN(CC)C(=O)c1cc(N)n2nc(-c3ccccn3)nc2c1 [Example 35, 5-Amino-2-pyridin-2-yl-[1,2,4]triazolo[1,5-a]pyridine-7-carboxylic acid diethylamide]
11 | 13.1 | 15.2 | 199 | – | CCCCN(Cc1ccccc1)C(=O)c1cc(N)n2nc(-c3ccccn3)nc2c1 [Example 36, 5-Amino-2-pyridin-2-yl-[1,2,4]triazolo[1,5-a]pyridine-7-carboxylic acid benzyl-butyl-amide]
12 | 23.8 | 4.6 | 109 | – | Nc1cc(C(=O)NCc2ccccc2Br)cc2nc(-c3ccccn3)nn12 [Example 38, 5-Amino-2-pyridin-2-yl-[1,2,4]triazolo[1,5-a]pyridine-7-carboxylic acid 2-bromo-benzylamide]
13 | 16.8 | 4.2 | 69.8 | – | Nc1cc(C(=O)NCc2ccccc2Cl)cc2nc(-c3ccccn3)nn12 [Example 39, 5-Amino-2-pyridin-2-yl-[1,2,4]triazolo[1,5-a]pyridine-7-carboxylic acid 2-chloro-benzylamide]
14 | 49.9 | 4.1 | 204 | – | Nc1cc(C(=O)NCCc2ccccc2F)cc2nc(-c3ccccn3)nn12 [Example 40, 5-Amino-2-pyridin-2-yl-[1,2,4]triazolo[1,5-a]pyridine-7-carboxylic acid [2-(2-fluoro-phenyl)-ethyl]-amide]
15 | 21.8 | 4.0 | 88.1 | – | COc1ccccc1CNC(=O)c1cc(N)n2nc(-c3ccccn3)nc2c1 [Example 41, 5-Amino-2-pyridin-2-yl-[1,2,4]triazolo[1,5-a]pyridine-7-carboxylic acid 2-methoxy-benzylamide]
16 | 87.7 | 2.3 | 203 | – | Nc1cc(C(=O)NCc2ccc(F)cc2)cc2nc(-c3ccccn3)nn12 [Example 43, 5-Amino-2-pyridin-2-yl-[1,2,4]triazolo[1,5-a]pyridine-7-carboxylic acid 4-fluoro-benzylamide]
17 | 44.5 | 2.7 | 120 | – | CC(NC(=O)c1cc(N)n2nc(-c3ccccn3)nc2c1)c1ccccc1 (stereo not shown) [Example 44, 5-Amino-2-pyridin-2-yl-[1,2,4]triazolo[1,5-a]pyridine-7-carboxylic acid (1-phenyl-ethyl)-amide]
18 | – | – | 1480 | – | Nc1cc(C(=O)N2CCCC2)cc2nc(-c3cccs3)nn12 [Example 128, (5-Amino-2-thiophen-2-yl-[1,2,4]triazolo[1,5-a]pyridin-7-yl)-pyrrolidin-1-yl-methanone]
19 | – | – | 275 | – | CCCN(C)C(=O)c1cc(N)n2nc(-c3ccc(Br)o3)nc2c1 [Example 268, 5-Amino-2-(5-bromo-furan-2-yl)-[1,2,4]triazolo[1,5-a]pyridine-7-carboxylic acid methyl-propyl-amide]
20 | – | – | 286 | – | CC1CCCN1C(=O)c1cc(N)n2nc(-c3ccc(Br)o3)nc2c1 (stereo not shown) [Example 270, [5-Amino-2-(5-bromo-furan-2-yl)-[1,2,4]triazolo[1,5-a]pyridin-7-yl]-(2-methyl-pyrrolidin-1-yl)-methanone]
21 | – | – | 130 | – | CC1CCCN(C(=O)c2cc(N)n3nc(-c4ccc(Br)o4)nc3c2)C1 (stereo not shown) [Example 295, [5-Amino-2-(5-bromo-furan-2-yl)-[1,2,4]triazolo[1,5-a]pyridin-7-yl]-(3,-methyl-piperidin-1-yl)-methanone]
22 | – | – | 253 | – | Nc1cc(C(=O)N2CCSCC2)cc2nc(-c3ccc(Br)o3)nn12 [Example 297, [5-Amino-2-(5-bromo-furan-2-yl)-[1,2,4]triazolo[1,5-a]pyridin-7-yl]-thiomorpholin-4-yl-methanone]
23 | – | – | 87.8 | – | CN(CCc1ccccc1)C(=O)c1cc(N)n2nc(-c3ccc(Br)o3)nc2c1 [Example 306, 5-Amino-2-(5-bromo-furan-2-yl)-[1,2,4]triazolo[1,5-a]pyridine-7-carboxylic acid methyl-phenethyl-amide]
24 | – | – | 65.7 | – | CC1CCCCN1C(=O)c1cc(N)n2nc(-c3ccc(Br)o3)nc2c1 (stereo not shown) [Example 336, [5-Amino-2-(5-bromo-furan-2-yl)-[1,2,4]triazolo[1,5-a]pyridin-7-yl]-(2-methyl-piperidin-1-yl)-methanone]
25 | – | – | 144 | – | CCN(CCc1ccccn1)C(=O)c1cc(N)n2nc(-c3ccc(Br)o3)nc2c1 [Example 352, 5-Amino-2-(5-bromo-furan-2-yl)-[1,2,4]triazolo[1,5-a]pyridine-7-carboxylic acid ethyl-(2-pyridin-2-yl-ethyl)-amide]
26 | – | – | 1060 | – | CCN(CC)C(=O)C1CCCN(C(=O)c2cc(N)n3nc(-c4ccc(Br)o4)nc3c2)C1 (stereo not shown) [Example 356, 1-[5-Amino-2-(5-bromo-furan-2-yl)-[1,2,4]triazolo[1,5-a]pyridin-7-carbonyl]-piperidine-3-carboxylic acid diethylamide]
27 | – | – | – | 711 | CN(C)C(=O)CN(C)C(=O)c1cc(N)n2nc(-c3ccc(Br)o3)nc2c1 [Example 384, 5-Amino-2-(5-bromo-furan-2-yl)-[1,2,4]triazolo[1,5-a]pyridine-7-carboxylic acid dimethylcarbamoylmethyl-methyl-amide]
28 | – | – | – | 616 | COC[C@@H]1CCCN1C(=O)c1cc(N)n2nc(-c3ccc(Br)o3)nc2c1 [Example 385, [5-Amino-2-(5-bromo-furan-2-yl)-[1,2,4]triazolo[1,5-a]pyridin-7-yl]-(S-2-methoxymethyl-pyrrolidin-1-yl)-methanone]
29 | – | – | – | 292 | COC[C@H]1CCCN1C(=O)c1cc(N)n2nc(-c3ccc(Br)o3)nc2c1 [Example 386, [5-Amino-2-(5-bromo-furan-2-yl)-[1,2,4]triazolo[1,5-a]pyridin-7-yl]-(R-2-methoxymethyl-pyrrolidin-1-yl)-methanone]
30 | – | – | – | 1450 | Nc1cc(C(=O)N2CCCC2)cc2nc(-c3ccccn3)nn12 [Example 410, (5-Amino-2-pyridin-2-yl-[1,2,4]triazolo[1,5-a]pyridin-7-yl)-pyrrolidin-1-yl-methanone]
